Assay results reported in patent publication US9253980B2 (priority 2011, dated 2016).

System: Puccinia recondita
Experiment: Control of brown rust on wheat caused by Puccinia recondita (greenhouse, comparative)
Assay type: in vivo
Details: 500 ppm spray to run-off one day before inoculation; % diseased leaf area, visually assessed; untreated control 90
Procedure: The spray solutions were prepared in several steps:
The stock solution were prepared: a mixture of acetone and/or dimethylsulfoxide and the wetting agent/emulsifier Wettol, which is based on ethoxylated alkylphenoles, in a relation (volume) solvent-emulsifier of 99 to 1 was added to 25 mg of the compound to give a total of 5 ml. Water was then added to total volume of 100 ml.
This stock solution was diluted with the described solvent-emulsifier-water mixture to the given concentration.
The first two developed leaves of pot-grown wheat seedling were sprayed to run-off with an aqueous suspension, containing 500 ppm of active ingredient as described below. The next day the plants were inoculated with spores of Puccinia recondita. To ensure the success the artificial inoculation, the plants were transferred to a humid chamber without light and a relative humidity of 95 to 99% and 20 to 24° C. for 24 h. Then the trial plants were cultivated for 6 days in a greenhouse chamber at 20-24° C. and a relative humidity between 65 and 70%. The extent of fungal attack on the leaves was visually assessed as % diseased leaf area.

SMILES	Disease level (%)
Cn1c(=O)c2sc3c(=O)n(C)c(=O)c3sc2c1=O	80
COn1c(=O)c2sc3c(=O)n(OC)c(=O)c3sc2c1=O [I-2, 2.6-Dimethoxy-1H.5H-[1.4]dithiino[2,3-c:5.6-c′]dipyrrol-1.3.5.7(2H.6H)tetrone]	45
